Like-named read-outs stand apart in the source and are kept apart here.
What was measured:
[1] = test system: Desulfomonile tiedjei cells; experiment: Effect of different medium reductants and sterilant on PCE dechlorination by induced cells (Table 2); format: cell-based; conditions: formaldehyde, final concentration 0.2%
Procedure: (§1) The concentration of nicotinamide and 1,4-naphthoquinone were 500 μgl^-1 and 200 μgl^-1, respectively. Thiamine, hemin and lipoic acid were used at 50 μg/liter. To induce 3-chlorobenzoate dechlorination activity, 3-fluorobenzoate was added to 0.1 mM. The complete medium was inoculated with a 1% transfer from homologous medium (without fluorobenzoate). Cultures were grown at 37° C. in the dark for about 14 days for fresh cells or 28 days for starved stationary phase cells.
(§2) Cultures were harvested by centrifugation and resuspended in 20 to 40% of the initial volume in a cold anaerobic assay buffer normally consisting of 50 mM NaCl, 10 mM sodium pyruvate, 10 mM HEPES (N-2[hydroxyethylP]piperazine-N'-[2-ethanesulfonic acid], hemisodium salt Sigma);, 0.00001% resazurin and reduced with 1 mM cysteine-HCl and 1 mM titanium (III) citrate. Resuspended cells were used to completely fill N2 sparged 10 ml serum bottles after which chlorinated ethylenes were added from a 0.5 or 1 mg/ml stock in methanol for PCE and TCE respectively. The vials were immediately sealed with Teflon lined rubber septa and aluminum crimp seals, leaving no headspace. The assays were commenced by transferring the serum bottles to a 37° C. water bath. The assays were terminated at the indicated times by transferring the serum bottles to an ice water bath, where they were stored until analyzed.
(§3) Chlorinated ethylenes were monitored with a Tekmar purge and trap unit (model 4000) connected to a Hewlett-Packard GC (Sunnyville, Calif.) equipped with an HP-5 cappillary column (30 m×0.53 mm×2.6 μm film thickness) and flame ionization detector. Samples (5 ml) were purged onto Tenax TA (Supelco, Bellefonte, Pa.) adsorbent with helium (30 ml/min for 16 min.), desorbed (180° C. for 4 min.), and separated using helium as a carrier at 6 ml/min. The temperature program was 30° C. for 8 min, increasing to 200° C. at 4° C./min and followed by an isothermal period of 5 min. The injection and detector temperatures were 220° C. and 300° C., respectively. PCE and its dechlorinated products were identified by comparison with authentic standards.
Data are the average of duplicate vials and […]

[2] = test system: 3-Chlorobenzoate Dechlorination Activity; experiment: Induction of 3-chlorobenzoate dechlorination activity by growth with 3-chlorobenzoate, analogues, or chloro- and iodobenzoates (Tables 4, 5); format: cell-based, Desulfomonile tiedjei
Procedure: Table 4. Cultures were grown in the presence of 3-chlorobenzoate or a 3-chlorobenzoate analogue substituted at the 1- or 3- position with the indicated functional groups. After several generations the culture were concentrated, washed and resuspended in anaerobic buffered salts containing 1 mM 3-chlorobenzoate and 10 mM pyruvate (as electron donor). […] After two hours samples were taken for benzoate analysis by HPLC. Values presented are the average of duplicate or triplicate cultures ± sample standard deviation.
Table 5. Chloro- and iodobenzoates were tested as inducers of 3-chlorobenzoate dehalogenation activity as described in the legend to Table 4. All compounds were initially at 500 μM; the 3-halo compounds were amended during growth as they were dehalogenated. Values presented are the average of duplicate or triplicate cultures± sample standard deviation.

[3] = test system: Dechlorination of 3-Chlorobenzoate; experiment: Dechlorination of 3-chlorobenzoate in the presence of various analogues by induced cells (Table 6); format: cell-based; conditions: Desulfomonile tiedjei, read-out: dechlorination of 3-chlorobenzoate in the presence of analogue, % of Control
Procedure: […]. 3-fluorobenzoate induced cultures were washed and resuspended essentially as described in the legend to […] with 100 μM 3-chlorobenzoate and the indicated analogues at 500 μM. Dechlorination rates were normalized to the rate in assays with no analogue to obtain the values presented.

[4] = test system: dechlorination of 3CB; conditions: cited from earlier work
[5] = test system: Desulfomonile tiedjei cells; experiment: PCE and TCE dechlorination by resuspended cells induced with 3-fluorobenzoate versus non-induced cells (Table 1, FIG. 1); format: cell-based; conditions: for Mole % recovered, TCE / Mole % recovered, cis-DCE / Total Cl Removed: 2 μg/ml substrate, 37° C., 2 hr; for Mole % recovered, TCE / Mole % recovered, cis-DCE: average of duplicate vials; for Total Cl Removed: calculated from input concentration and Mole % recovered
Procedure: as §1, with “Cultures were grown using strict anaerobic technique in a synthetic minimal medium amended with vitamins (DeWeerd, et al, Arch. of Microbiol. 154, 23-30 (1990)), pyruvate at 20 mM, and reduced with 1 mM cysteine and 0.1 mM Na2 S2 O4. The concentration” for “The concentration”
as §2, with “analyzed. Protein concentrations were determined by a modification of the Lowry method (Hanson, R. S. and J. A. Phillips, In P. Gerhardt (ed.) Manual of methods for general microbiology. American Society for Microbiology, Washington, D. C. p. 328-364 (1981)).” for “analyzed.”
as §3
To further examine the transformation of both PCE and TCE and to determine if dechlorination of TCE also requires induction, a similar experiment was conducted to measure the initial transformation rates of PCE and TCE (Table 1.). […] The extent of transformation of PCE to TCE ([…] in 2H) was considerably faster than the rate of transformation of TCE to DCE ([…] in 2h), as expected from the redox potentials of these reactions (Vogel, T. M., et al., Environ. Sci. Technol. 21:722-736 (1987)) and results from mixed culture systems (Bouwer, E. J., and P. L. McCarty, Appl. Environ. Microbiol. 45:1286-1294 (1983)). The rate of transformation of PCE and TCE were much greater for the induced cultures than for the non-induced cultures.
^a suspensions were amended with PCE or TCE to a final concentration
of 2 μg/ml and incubated at 37° C. for 2 hr. Suspensions of
induced and uninduced cells contained 149 and 153 μg protein per ml
^b Data are presented as the average of duplicate vials with the
sample standard deviation in parenthesis.
^c Calculated from the input concentration of chlorinated ethylenes
and the Mole % of recovered material.

[6] = Table 4, inducers at 500 μM except 3-formylbenzoate 100 μM and 3-chlorobenzoate (amended at intervals), assay 1 mM 3-chlorobenzoate, two hours
[7] = 100 μM 3-chlorobenzoate, analogue 500 μM, normalized to rate with no analogue
[8] = Table 5, inducers initially 500 μM, 3-halo compounds amended during growth
[9] = growing cells and resuspended cells

For `C=O` [formaldehyde], the “effect on PCE dechlorination” value [1] was “almost totally blocked dechlorination”.
For `Cc1cccc(C(=O)O)c1` [3-methyl-benzoate], the “Induction Activity (3-chlorobenzoate dechlorination activity)” value (“Induction Activity” for short) [2, 6] was 409 ± 6 nMol/hr/mg protein and the activity at 500 µM [3, 7] was 119%.
For `O=C(O)c1ccccc1Cl` [2-chloro-], the “Induction Activity” value [2, 8] was 0 ± 0 nMol/hr/mg protein.
For `O=C(O)c1ccc(I)cc1` [4-iodobenzoate], the “Induction Activity” value [2, 8] was 7 ± 10 nMol/hr/mg protein.
In the case of `O=C(O)c1cccc(I)c1` [3-iodo-, m-iodobenzoate], the “Induction Activity” value [2, 8] is reported as 582 ± 59 nMol/hr/mg protein.
In the case of `N#Cc1cccc(C(=O)O)c1` [--COOH --CN], the “Induction Activity” value [2, 6] is reported as 7 ± 1 nMol/hr/mg protein and the activity at 500 µM [3] is reported as 76%.
In the case of `O=S(O)O` [sulfite], the “effect on dechlorination of 3CB” value [4, 9] is listed as “inhibit dechlorination of 3CB”.
In the case of `OCc1cccc(Cl)c1` [--CH2 OH --Cl, 3-chlorobenzyl alcohol], the “Induction Activity” value [2, 6] is reported as 86 ± 5 nMol/hr/mg protein and the activity at 500 µM [3, 7] is reported as 108%.
For `O=S(=O)(O)O` [Sulfate], the “effect on dechlorination of 3CB” value ([4]; cells growing on a different medium or resuspended cells) is listed as “not by cells growing on a different medium or by resuspended cells” and the “effect on dechlorination of 3CB” value ([4]; cells growing on one medium) is listed as “inhibited dechlorination of 3CB”.
With `ClC=C(Cl)Cl` [TCE, trichloroethylene] the “product formation from PCE or TCE” value ([5]; Only cultures pre-induced with 3-fluorobenzoate) was “measurable product formation”, the “Mole % recovered, TCE” value ([5]; induced (+)) was 89.2 Mole % and the “Mole % recovered, cis-DCE” value ([5]; induced (+)) was 10.8 Mole %. For the same molecule, the “Total Cl Removed” value ([5]; induced (+)) was 11.0 μmol/g prot. in 2 h, the “Mole % recovered, TCE” value ([5]; non-induced (-)) was 100.0 Mole % and the “Mole % recovered, cis-DCE” value ([5]; non-induced (-)) was 0.0 Mole %. For the same molecule, the “Total Cl Removed” value ([5]; non-induced (-)) was 0.0 μmol/g prot. in 2 h and the “rate of transformation of TCE to DCE” value ([5]; pre-induced with 3-fluorobenzoate) was 11 mol g protein ^-1 in 2h.
With `O=C(O)c1ccccc1` [--COOH --H, benzoate] the activity at 500 µM [3] was 106%.
With `O=C(O)c1cccc(C(F)(F)F)c1` [--COOH --CF3, m-trifluoromethyl benzoate] the “Induction Activity” value [2, 6] was 383 ± 6 nMol/hr/mg protein and the activity at 500 µM [3, 7] was 94%.
For `O=C(O)c1cccc(O)c1` [--COOH --OH], the “Induction Activity” value [2, 6] was 3 ± 4 nMol/hr/mg protein and the activity at 500 µM [3, 7] was 91%.
For `O=Cc1cccc(C(=O)O)c1` [3-formylbenzoate], the “Induction Activity” value [2, 6] was 8 ± 1 nMol/hr/mg protein.
With `O=C(O)c1cccc(F)c1` [3-fluorobenzoate] the “Induction Activity” value [2, 6] was 570 ± 37 nMol/hr/mg protein and the activity at 500 µM [3, 7] was 114%.
With `Nc1cccc(C(=O)O)c1` [--COOH --NH2] the “Induction Activity” value [2, 6] was 4 ± 1 nMol/hr/mg protein and the activity at 500 µM [3, 7] was 78%.
In the case of `O=C(O)c1ccccc1I` [2-iodobenzoate], the “Induction Activity” value [2, 8] is reported as 13 ± 9 nMol/hr/mg protein.
For `O=S(O)(O)=S` [Thiosulfate], the “effect on dechlorination of 3CB” value [4, 9] is listed as “inhibit dechlorination of 3CB”.

From patent US5200343A, “Method for microbial dehalogenation of haloaliphatic compounds using a sulfate reducing bacteria, desulfomonile tiedjei” (Board of Trustees operating Michigan State University, priority 1991, dated 1993)
